Results as given in patent publication EP3248604A1, “AGENTS FOR MODULATION OF WNT-TCF SIGNALLING AND USES THEREOF” (UNIVERSITE DE GENEVE, priority 2016, dated 2017).
pIC50: −log10 of the molar value.

How the values were obtained:
WNT-TCF targets [1] = test: RT-qPCR gene expression in Ls174T cells; assay type: cell-based, human; conditions: Ls174T
Protocol: (§1) RT-qPCR was performed as in Melotti et al. (2014, supra) using BioRad equipment and reagents. Cells cultured in nitro were treated with the desired concentration of drug in DMEM-F12 and reduced serum (2.5% FBS) for 16h, unless otherwise noted, and collected in Trizol (Sigma) before total RNA extraction and cDNA synthesis. Primers were as in Table 1. HPRT (gene encoding Hypoxanthine phosphoribosyltransferase 1) and βACTIN were used as housekeeping controls for normalization.
Compounds have been tested for the transcriptional modulation of a restricted TCF signature in human colon cancer Ls174T cells. These included the direct targets AXIN2 (gene encoding a protein axis inhibition protein 2), LGR5 (gene encoding encodes leucine-rich repeat-containing G-protein coupled receptor 5) and cMYC (a regulator gene encoding a transcription factor), which should be repressed by WNT-TCF response antagonists and p21 (or CDKN1A, gene encoding a cyclin-dependent kinase inhibitor that inhibits the complexes of CDK2 and CDK1), which should be induced.

WNT-TCF targets [2] = test: RT-qPCR gene expression in HT29 cells; assay type: cell-based, human; conditions: 16h, batch 3, vs DMSO=1
Protocol: as §1
(§2) Primary colon cells CC14, CC36 and mCC11, colon cancer cell lines DLD1, HT29, Ls174T, melanoma cell line MeWo, glioblastoma cell lines U87 and U251, and the lung cancer cell line H358 were cultured in DMEM-F12 with 10% FBS under standard in nitro conditions.

WNT-TCF targets [3] = test: RT-qPCR gene expression in H358 lung cancer cells; assay type: cell-based, human; conditions: 16h, batch 3, vs DMSO=1
Protocol: as §1, §2

Ls174T cells [4] = test: Clonal spheroid assay, Ls174T; assay type: cell-based, human; conditions: Homo sapiens, LS174T, 16 h, read-out: IC50, number of stem cell-derived spheroids
Protocol: Cells were treated with different concentrations of compounds for 16h in 2D adherent culture, washed, harvested and plated in suspension with serum-free DMEM-F12 media with B27 supplement (1:50 dilution) at 1 cell/well in 96-well format in triplicates. Plated cells were monitored to ensure the presence of single cells in each well and spheroids counted and photographed after 10 days for each round.
To directly test for a long-lasting repression of WNT-TCF targets by CAP2 clonogenic properties of cancer stem cells were tested. DLD1 and LS174T cells were first treated with CAP2 in 2D culture in vitro followed by removal of the drug, washing with PBS, and plating under non-adherent 3D conditions for clonal spheroid growth in the absence of the drug. After primary spheroid growth, the spheroids were dissociated and replated as single cells for secondary and subsequent clonogenic spheroid formation, also in the absence of the compound of the invention. As negative control DMSO-treatment was used.

TCF targets = test: Microarray transcriptome analysis in Ls174T cells; assay type: cell-based, human; conditions: 16h
Protocol: (§3) Cells treated with compounds were collected in Trizol and RNA was harvested using standard protocols. Quality and quantity of RNA was checked using Nano Series (Agilent Technologies). Samples with a RNA Integrity Number (RIN) >9/10 were chosen and cDNA and cRNA samples were prepared using GeneChip IVT Express kit. Genechip hybridization was done using the same kit and applied to PrimeView U219 human array (Affymetrix) in the Genomic Platform at the Faculty of Medicine, University of Geneva.
To test the effects of CAP2 on the transcriptome in a genome-wide manner microarray analyses with Ls174T cells were performed as these have been previously used to determine the genome-wide changes driven by dnTCF activity (van der Flier et al., 2007, Gastroenterology, 132(2): 628-32), the genetic benchmark use here. Ls174T cells were treated with 5 µM CAP2 (batch 3) for 16h, and their transcriptome compared with that of controls treated with DMSO under the same conditions. This dose was chosen since it results in extended WNT-TCF target gene modulation (Table 6).

[5] = system: chromatin components and remodelers; test: Microarray analysis of chromatin components and remodelers in Ls174T cells; assay type: cell-based, human; conditions: CAP2-treated cells vs DMSO
Protocol: as §3
Mining the transcriptome of CAP2-treated cells for CAP2-induced expression changes the public Reactome database for a chromatin organization cluster expanded to include related family members (94 probes) was used.

Ls174T cells [6] = conditions: FACS, vs DMSO
Protocol: (§4) Cell were plated with different concentrations of compounds in a 96-well format and incubated in standard conditions for 6h and imaged. Active (cleaved) Caspase-3^+ apoptosis was determined using the BD Pharmigen kit and FACS (fluorescence-activated cell sorting).

DLD1 cells = conditions: FACS, vs DMSO
Protocol: as §4

[7] = 1.25µM, 16h, batch 3, vs DMSO=1
[8] = 5µM batch 3, 2h post-treatment, vs DMSO=1
[9] = 5µM batch 3, 4h post-treatment, vs DMSO=1
[10] = Table 11, head 'in vitro', concentration not given
[11] = Table 9, microarray, Ls174T, 5 µM (batch 3), vs DMSO
[12] = Table 10, Microarray, CAP2 5 µM
[13] = microarray, Ls174T, 5 µM, vs DMSO

CC1=C(C)C(=O)O[C@@H]([C@](C)(O)[C@]2(O)CC[C@@]3(O)[C@@H]4CC=C5CC=CC(=O)[C@]5(C)[C@H]4CC[C@]23C)C1 [CAP2]
AXIN2 expression (WNT-TCF targets [1]; [7]): 0.6
LGR5 expression (WNT-TCF targets [1]; [7]): 0.2
AXIN2 expression (WNT-TCF targets [1]; 2.5µM, 16h, batch 3, vs DMSO=1): 0.4
LGR5 expression (WNT-TCF targets [1]; 2.5µM, 16h, batch 3, vs DMSO=1): 0.1
AXIN2 expression (WNT-TCF targets [1]; [8]): 0.2
LGR5 expression (WNT-TCF targets [1]; [8]): 0.7
AXIN2 expression (WNT-TCF targets [1]; [9]): 0.1
LGR5 expression (WNT-TCF targets [1]; [9]): 0.1
AXIN2 expression (WNT-TCF targets [1]; 5µM, 16h, batch 3, vs DMSO=1): 0.2
LGR5 expression (WNT-TCF targets [1]; 5µM, 16h, batch 3, vs DMSO=1): 0.03
AXIN2 expression (WNT-TCF targets [1]; 10 µM, 16h): 0.6
CDKN1A expression (WNT-TCF targets [1]; 10 µM, 16h): 3.7
LGR5 expression (WNT-TCF targets [1]; 10 µM, 16h): 0.7
cMYC expression (WNT-TCF targets [1]; 10 µM, 16h): 0.6
AXIN2 expression (WNT-TCF targets [1]; 10µM, 16h, batch 3, vs DMSO=1): 0.1
LGR5 expression (WNT-TCF targets [1]; 10µM, 16h, batch 3, vs DMSO=1): 0.1
AXIN2 expression level as compared to control (WNT-TCF targets [1]; 2D culture, 2.5µm): 0.4
ASCL2 expression (WNT-TCF targets [1]; Table 7, 1.25µM, vs DMSO=1): 1.1
AXIN2 expression (WNT-TCF targets [1]; Table 7, 1.25µM, vs DMSO=1): 0.7
CDKN1A expression (WNT-TCF targets [1]; Table 7, 1.25µM, vs DMSO=1): 3.5
LEF1 expression (WNT-TCF targets [1]; Table 7, 1.25µM, vs DMSO=1): 1.2
LGR5 expression (WNT-TCF targets [1]; Table 7, 1.25µM, vs DMSO=1): 0.3
cMYC expression (WNT-TCF targets [1]; Table 7, 1.25µM, vs DMSO=1): 0.04
ASCL2 expression (WNT-TCF targets [1]; Table 7, 2.5µM, vs DMSO=1): 0.4
AXIN2 expression (WNT-TCF targets [1]; Table 7, 2.5µM, vs DMSO=1): 0.4
CDKN1A expression (WNT-TCF targets [1]; Table 7, 2.5µM, vs DMSO=1): 5.4
LEF1 expression (WNT-TCF targets [1]; Table 7, 2.5µM, vs DMSO=1): 0.7
LGR5 expression (WNT-TCF targets [1]; Table 7, 2.5µM, vs DMSO=1): 0.2
cMYC expression (WNT-TCF targets [1]; Table 7, 2.5µM, vs DMSO=1): 0.1
ASCL2 expression (WNT-TCF targets [1]; Table 7, 5µM, vs DMSO=1): 0.1
AXIN2 expression (WNT-TCF targets [1]; Table 7, 5µM, vs DMSO=1): 0.3
CDKN1A expression (WNT-TCF targets [1]; Table 7, 5µM, vs DMSO=1): 11.4
LEF1 expression (WNT-TCF targets [1]; Table 7, 5µM, vs DMSO=1): 0.5
LGR5 expression (WNT-TCF targets [1]; Table 7, 5µM, vs DMSO=1): 0.1
cMYC expression (WNT-TCF targets [1]; Table 7, 5µM, vs DMSO=1): 0.1
ASCL2 expression (WNT-TCF targets [1]; Table 7, 10µM, vs DMSO=1): 0.1
AXIN2 expression (WNT-TCF targets [1]; Table 7, 10µM, vs DMSO=1): 0.1
CDKN1A expression (WNT-TCF targets [1]; Table 7, 10µM, vs DMSO=1): 7.6
LEF1 expression (WNT-TCF targets [1]; Table 7, 10µM, vs DMSO=1): 0.3
LGR5 expression (WNT-TCF targets [1]; Table 7, 10µM, vs DMSO=1): 0.1
cMYC expression (WNT-TCF targets [1]; Table 7, 10µM, vs DMSO=1): 0.01
ASCL2 expression (WNT-TCF targets [1]; [10]): 0.1
AXIN2 expression (WNT-TCF targets [1]; [10]): 0.3
LGR5 expression (WNT-TCF targets [1]; [10]): 0.1
AXIN2 expression (WNT-TCF targets [2]; 1.25µM): 0.8
LGR5 expression (WNT-TCF targets [2]; 1.25µM): 0.8
AXIN2 expression (WNT-TCF targets [2]; 2.5µM): 0.9
LGR5 expression (WNT-TCF targets [2]; 2.5µM): 0.7
AXIN2 expression (WNT-TCF targets [2]; 5µM): 0.8
LGR5 expression (WNT-TCF targets [2]; 5µM): 0.3
AXIN2 expression (WNT-TCF targets [2]; 10µM): 0.4
LGR5 expression (WNT-TCF targets [2]; 10µM): 0.1
AXIN2 expression (WNT-TCF targets [3]; 1.25µM): 0.8
LEF1 expression (WNT-TCF targets [3]; 1.25µM): 0.4
AXIN2 expression (WNT-TCF targets [3]; 2.5µM): 0.7
LEF1 expression (WNT-TCF targets [3]; 2.5µM): 0.6
AXIN2 expression (WNT-TCF targets [3]; 5µM): 0.6
LEF1 expression (WNT-TCF targets [3]; 5µM): 0.4
AXIN2 expression (WNT-TCF targets [3]; 10µM): 0.4
LEF1 expression (WNT-TCF targets [3]; 10µM): 0.2
pIC50 (Ls174T cells [4]): > 5.90
ASCL2 Fold change (TCF targets; [11]): -9
AXIN2 Fold change (TCF targets; [11]): -4
CDKN1A Fold change (TCF targets; [11]): 9
LGR5 Fold change (TCF targets; [11]): -15
cMYC Fold change (TCF targets; [11]): -10
ASCL2 Fold change, Ls174T cells (TCF targets; [12]): -9.1
AXIN2 Fold change, Ls174T cells (TCF targets; [12]): -4.1
LGR5 Fold change, Ls174T cells (TCF targets; [12]): -15.1
cMYC Fold change, Ls174T cells (TCF targets; [12]): -10.2
share of the 106-gene set of TCF targets repressed by 1.5-fold or more (TCF targets; microarray, Ls174T, 5 µM): 70%
downregulation of ASCL2 (TCF targets; [13]): 9 fold
downregulation of AXIN2 (TCF targets; [13]): 4 fold
downregulation of LGR5 (TCF targets; [13]): 15 fold
EED repression [5]: 8 fold
SMARCAL1 repression [5]: 6 fold
ZMYND8 repression [5]: 28 fold
concentration from which activated Caspase3 labeled cells increase (Ls174T cells [6]): 2.5 µM
concentration from which activated Caspase3 labeled cells increase (DLD1 cells): 2.5 µM
